# Literature values as cited in article PMC9959726 (Molecules, 2023).
# Where two headings read alike, the source gives them in different places.
# Assays:
# [1] = system: BEAS-2B and HepG2 cells; conditions: PM2.5-induced BEAS-2B and HepG2 cells
# [2] = system: CYP-1A2; design: method as in PMID 34377680; conditions: for Effect on CYP 1A2: from P. anisum root
# [3] = system: MCF-7 cells; design: method as in PMID 29959054; conditions: from P. haussknechtii fruit; read-out: Cytotoxicity against MCF-7 cell, IC50
# [4] = from P. thellungiana
# [5] = for antioxidant activity: compounds obtained from P. saxifraga; for antioxidant property: from P. brachycarpa
# [6] = system: DNA; conditions: compounds obtained from P. saxifraga
# [7] = system: α-glycosidase; conditions: for α-glucosidase inhibitory: from P. candolleana; for α-glucosidase inhibition: from P. anthriscoides
# [8] = system: α-amylase; conditions: from P. anthriscoides
# [9] = system: AChE; conditions: from P. anthriscoides
# [10] = system: BChE; conditions: from P. anthriscoides
# [11] = system: pestiferous pests; design: method as in PMID 29029251, PMID 29029346
# [12] = design: method as in PMID 30704124
molecule,measurement,setting,value
"CC=Cc1ccc(OC)cc1 (stereo in doubt) [compound 40, cis-anethole]",reduction of IL-8 level,[1],87%
COc1c2ccoc2cc2oc(=O)ccc12 [Bergapten (256)],Effect on CYP 1A2,[2],Inhibitory effects on CYP 1A2
CC(C)=CC(C)(O)C1OC(=O)Cc2oc(C)cc(=O)c21 (stereo not drawn) [Pimpinelol (205)],IC50,[3],1060 nM
"CCOC(c1cc(OC)ccc1O)C(C)O (stereo not drawn) [compound 1, 2-(1′-ethoxy-2′-hydroxy)propyl-4-methoxyphenol]",antihypertensive activity,[4],significant antihypertensive activity
"CCOC(c1cc(OC)ccc1OC(=O)C(C)CC)C(C)O (stereo not drawn) [compound 2, 2-(1′-ethoxy-2′-hydroxy)propyl-4-methoxyphenyl-2-methyl-butyrate]",antihypertensive activity,[4],significant antihypertensive activity
"COC(=O)/C=C/c1ccccc1O [compound 48, methyl-O-coumarate]",antioxidant activity,[5],antioxidant activity
same,DNA protection potential,[6],DNA protection potential
"CCC(=O)c1ccc(OC)cc1O [compound 49, 1-(2-hydroxy-4-methoxyphenyl)propan1-one]",antioxidant activity,[5],antioxidant activity
same,DNA protection potential,[6],DNA protection potential
"COc1ccc(C=CC=O)cc1 [compound 50, 4-methoxycinnamaldehyde]",antioxidant activity,[5],antioxidant activity
same,DNA protection potential,[6],DNA protection potential
"C=CCc1cc2c(c(OC)c1OC)OCO2 [compound 51, dillapiole]",antioxidant activity,[5],antioxidant activity
same,DNA protection potential,[6],DNA protection potential
"COc1c2ccoc2cc2oc(=O)ccc12 [compound 256, bergapten]",CYP-1A2 inhibition,[2],inhibitors
"COc1c2ccoc2c(OC)c2oc(=O)ccc12 [compound 274, isopimpinellin]",CYP-1A2 inhibition,[2],inhibitors
"CCC(C=CC(C)C1CCC2C3CC=C4CC(OC(C)=O)CCC4(C)C3CCC12C)C(C)C (stereo not drawn) [compound 294, Stigmasta-5, 22-dien-3-olacetate]",antioxidant,[5]; from P. candolleana,effective antioxidant
same,α-glucosidase inhibitory,[7],α-glucosidase inhibitory
"CC[C@H](CC[C@@H](C)[C@H]1CC[C@H]2[C@@H]3CC=C4C[C@@H](O[C@@H]5O[C@H](CO)[C@@H](O)[C@H](O)[C@H]5O)CC[C@]4(C)[C@H]3CC[C@]12C)C(C)C [compound 295, daucosterol]",antioxidant,[5]; from P. candolleana,effective antioxidant
same,α-glucosidase inhibitory,[7],α-glucosidase inhibitory
"CC[C@H](/C=C/[C@@H](C)[C@H]1CC[C@H]2[C@@H]3CC=C4C[C@@H](O)CC[C@]4(C)[C@H]3CC[C@]12C)C(C)C [compound 296, stigmasterol]",antioxidant,[5]; from P. candolleana,effective antioxidant
same,α-glucosidase inhibitory,[7],α-glucosidase inhibitory
"CC(=O)C(C)CCC(C)C1CCC2(C)C3CCC4C(C)(C)CCCC4(C)C3CCC12C (stereo not drawn) [compound 297, 24ζ-Methyl-5R-lanosta-25-one]",antioxidant property,[5],antioxidant property
"CC(=O)[C@H]1CC[C@H]2[C@@H]3CC=C4C[C@@H](O)CC[C@]4(C)[C@H]3CC[C@]12C [compound 298, pregnenolone]",antioxidant property,[5],antioxidant property
"O=C(O)C(O)Cc1ccccc1 (stereo not drawn) [compound 337, 3-phenyllactic acid]",antioxidant,[5]; from P. anthriscoides,proven antioxidant
same,α-amylase inhibition,[8],inhibiting
same,α-glucosidase inhibition,[7],inhibiting
same,AChE inhibition,[9],inhibiting
same,BChE inhibition,[10],inhibiting
"O=C(O)CC(O)(CC(=O)O)C(=O)O [compound 338, citric acid]",antioxidant,[5]; from P. anthriscoides,proven antioxidant
same,α-amylase inhibition,[8],inhibiting
same,α-glucosidase inhibition,[7],inhibiting
same,AChE inhibition,[9],inhibiting
same,BChE inhibition,[10],inhibiting
COc1c2ccoc2c(OC)c2oc(=O)ccc12 [isopimpinellin (274)],Effect on CYP 1A2,[2],Inhibitory effects on CYP 1A2
COc1c2occc2cc2ccc(=O)oc12 [methoxsalen (275)],Effect on CYP 1A2,[2],Inhibitory effects on CYP 1A2
p-anisaldehyde [compound 47],antioxidant activity,[5],antioxidant activity
same,DNA protection potential,[6],DNA protection potential
same,reproduction of pests,[11],inhibiting the reproduction of pests
umbelliprenin [compound 276],skin whitening,[12],potential skin-whitening agent
